Usually Emax stands for the greatest response seen or fitted, relative to the assay's reference. The term EC50 denotes the midpoint of the concentration-response curve.

The target of the experiment is T1, human 5-HT2C receptor (Homo sapiens, UniProt P28335).
T1 sequence (P28335 33-458): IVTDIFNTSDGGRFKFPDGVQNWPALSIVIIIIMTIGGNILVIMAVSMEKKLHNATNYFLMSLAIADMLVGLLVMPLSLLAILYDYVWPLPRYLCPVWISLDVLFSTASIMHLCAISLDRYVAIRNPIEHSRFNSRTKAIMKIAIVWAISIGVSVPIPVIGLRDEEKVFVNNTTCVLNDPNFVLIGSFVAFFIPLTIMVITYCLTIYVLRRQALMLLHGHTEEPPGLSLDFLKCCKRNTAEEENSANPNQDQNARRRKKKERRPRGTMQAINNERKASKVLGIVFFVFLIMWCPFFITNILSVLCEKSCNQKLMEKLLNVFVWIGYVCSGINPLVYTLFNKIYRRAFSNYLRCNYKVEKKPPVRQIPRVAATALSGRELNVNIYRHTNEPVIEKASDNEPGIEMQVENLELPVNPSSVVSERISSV
In words: 5-HT2C receptor-stimulated calcium mobilization (FLIPR) in CHO cells.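 On all read-outs here: Fluo-3-AM fluorescence read on FLIPR every 1 s, agonist added after 10 baseline reads, response taken as peak minus lowest raw fluorescence count.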 The class given is cell-based. The settings on record: for Emax: CHO, read-out: 5-HT2C Function Emax (%); for Emax / 5-HT2C Function Emax (%): percentage of the response observed with a maximally effective concentration of 5-HT; for EC50: calcium mobilization, CHO cells stably expressing human 5-HT2C, read-out: 5-HT2C Function EC50.

In the case of `CNCC1Cc2cc(Cl)cc(-c3ccccc3OC)c2O1` (racemic) [Example 460, (±)-[(5-chloro-7-(2-methoxyphenyl)-2,3-dihydro-1-benzofuran-2-yl]methyl}methylamine], the Emax was found to be 90% and the EC50 stood at 0.215 µM.
The matching figures for `CNCC1Cc2cc(F)cc(-c3cccc(OC)c3OC)c2O1` (racemic) [Example 444, (±)-{[7-(2,3-dimethoxyphenyl)-5-fluoro-2,3-dihydro-1-benzofuran-2-yl]methyl}methylamine]: 80% and 0.037 µM.
With `COc1cc2c(c(-c3cc(Cl)ccc3Cl)c1)OC(CN)C2` (single isomer, unassigned; (-)) [Example 369, (−)-{[7-(2,5-dichlorophenyl)-5-methoxy-2,3-dihydro-1-benzofuran-2-yl]methyl}amine], the 50% effective concentration (EC50) worked out at 0.283 µM and the “5-HT2C Function Emax (%)” value was determined as 90%.
Turning to `CNCC1Cc2cc(Cl)cc(-c3c(C)cccc3C)c2O1` (single isomer, unassigned; (+)) [Example 565, (+)-{[5-chloro-7-(2,6-dimethylphenyl)-2,3-dihydro-1-benzofuran-2-yl]methyl}methylamine], the EC50 turned out to be 0.287 µM and the “5-HT2C Function Emax (%)” value was determined as 70%.
Take `Fc1cc2c(c(-c3c(Cl)cccc3Cl)c1)OC(CNC1CC1)C2` (racemic) [Example 231, (±)-N-{[7-(2,6-dichlorophenyl)-5-fluoro-2,3-dihydro-1-benzofuran-2-yl]methyl}cyclopropanamine]: the Emax was determined as 80% and the concentration giving a half-maximal response (EC50) was determined as 0.0004 µM.
Taken in the same sequence, the figures for `CNCC1Cc2cc(F)cc(-c3c(C)cccc3C)c2O1` (racemic) [Example 453, (±)-{[7-(2,6-dimethylphenyl)-5-fluoro-2,3-dihydro-1-benzofuran-2-yl]methyl}methylamine] were 80% and 0.024 µM.
Taken in the same sequence, the figures for `Fc1cc2c(c(-c3c(Cl)cccc3Cl)c1)OC(CNC1CCC1)C2` (racemic) [Example 233, (±)-N-{[7-(2,6-dichlorophenyl)-5-fluoro-2,3-dihydro-1-benzofuran-2-yl]methyl}cyclobutanamine] were 20% and 0.614 µM.
On to `CNCC1Cc2cc(Cl)cc(-c3c(C)cccc3C)c2O1` (single isomer, unassigned; (-)) [Example 564, (−)-{[5-chloro-7-(2,6-dimethylphenyl)-2,3-dihydro-1-benzofuran-2-yl]methyl}methylamine], for which the maximal response (Emax) is 90% and the concentration giving a half-maximal response (EC50) was 0.043 µM.
Consider `NC[C@H]1Cc2cc(F)cc(-c3c(Cl)cccc3Cl)c2O1` [Example 550, (−)-{[7-(2,6-dichlorophenyl)-5-fluoro-2,3-dihydro-1-benzofuran-2-yl]methyl}amine], for which the Emax was 100%.
As for `CNCC1Cc2cc(F)cc(-c3ccc(Cl)cc3Cl)c2O1` (single isomer, unassigned; (+)) [Example 447], the EC50 amounted to 0.003 µM and the “5-HT2C Function Emax (%)” value turned out to be 90%.
The matching figures for `Cc1cccc(C)c1-c1cc(F)cc2c1OC(CN)C2` (single isomer, unassigned; (+)) [Example 228, (+)-{[7-(2,6-dimethylphenyl)-5-fluoro-2,3-dihydro-1-benzofuran-2-yl]methyl}amine]: 0.313 µM and 70%.
For `NCC1Cc2cccc(-c3cccc(F)c3F)c2O1` (racemic) [Example 160, (±)-{[7-(2,3-difluorophenyl)-2,3-dihydro-1-benzofuran-2-yl]methyl}amine], the maximal effect (Emax) worked out at 100% and the concentration giving a half-maximal response (EC50) was found to be 0.032 µM.
For the compound `CNCC1Cc2cc(F)cc(-c3c(Cl)cccc3Cl)c2O1` (single isomer, unassigned; (+)) [Example 543, (+){[7-(2,6-dichlorophenyl)-5-fluoro-2,3-dihydro-1-benzofuran-2-yl]methyl}methylamine], the EC50 is 0.0002 µM and the “5-HT2C Function Emax (%)” value is 100%.
Consider `Cc1cccc(-c2cccc3c2OC(CN)C3)c1C` (racemic) [Example 154, (±)-1-[7-(2,3-dimethylphenyl)-2,3-dihydro-1-benzofuran-2-yl]methanamine], for which the Emax was determined as 90% and the concentration for a half-maximal effect (EC50) was determined as 0.065 µM.
Taken in the same sequence, the figures for `CCCNCC1Cc2cc(F)cc(-c3c(Cl)cccc3Cl)c2O1` (racemic) [Example 235, (±)-N-{[7-(2,6-dichlorophenyl)-5-fluoro-2,3-dihydro-1-benzofuran-2-yl]methyl}propan-1-amine] were 50% and 0.049 µM.
The matching figures for `Clc1cccc(Cl)c1-c1cccc2c1OC(CNC1CC1)C2` (racemic) [Example 391, (±)-N-{[7-(2,6-dichlorophenyl)-2,3-dihydro-1-benzofuran-2-yl]methyl}cyclopropanamine]: 80% and 0.0002 µM.
The matching figures for `CNCC1Cc2cccc(-c3cccnc3)c2O1` (racemic) [Example 436, (±)-N-methyl-1-(7-pyridin-3-yl-2,3-dihydro-1-benzofuran-2-yl)methanamine]: 90% and 0.055 µM.
For `Cc1cccc(C)c1-c1cc(Cl)cc2c1OC(CN1CCCC1)C2` (racemic) [Example 280, (±)-1-{[5-chloro-7-(2,6-dimethylphenyl)-2,3-dihydro-1-benzofuran-2-yl]methyl}pyrrolidine], the Emax stood at 70% and the concentration giving a half-maximal response (EC50) is 0.288 µM.
As for `CNCC1Cc2cc(C)cc(-c3cccc(OC)c3OC)c2O1` (single isomer, unassigned; (-)) [Example 567, (−)-{[7-(2,3-dimethoxyphenyl)-5-methyl-2,3-dihydro-1-benzofuran-2-yl]methyl}methylamine], the EC50 is 0.009 µM and the “5-HT2C Function Emax (%)” value is reported as 60%.
Regarding `CNCC1Cc2cc(Cl)cc(-c3ccc(Cl)cc3Cl)c2O1` (racemic) [Example 468, (±)-{[5-chloro-7-(2,4-dichlorophenyl)-2,3-dihydro-1-benzofuran-2-yl]methyl}methylamine], the Emax turned out to be 80% and the concentration giving a half-maximal response (EC50) was determined as 0.073 µM.
On to `CC(C)NCC1Cc2cc(F)cc(-c3c(Cl)cccc3Cl)c2O1` (racemic) [Example 236, (±)-N-{[7-(2,6-dichlorophenyl)-5-fluoro-2,3-dihydro-1-benzofuran-2-yl]methyl}propan-2-amine], for which the Emax came to 70% and the EC50 is 0.123 µM.
Taken in the same sequence, the figures for `CNCC1Cc2cccc(-c3cc(Cl)ccc3C)c2O1` (racemic) [Example 431, (±)-[(N-methyl-1-[7-(5-chloro-2-methylphenyl)-2,3-dihydro-1-benzofuran-2-yl]methanamine] were 90% and 0.063 µM.
For the compound `CNCC1Cc2cc(F)cc(-c3cccc(OC)c3OC)c2O1` (single isomer, unassigned; (+)) [Example 569, (+)-{[7-(2,3-dimethoxyphenyl)-5-fluoro-2,3-dihydro-1-benzofuran-2-yl]methyl}methylamine], the concentration giving a half-maximal response (EC50) is 0.006 µM and the “5-HT2C Function Emax (%)” value was 60%.
In the case of `CCCNCC1Cc2cc(Cl)cc(-c3c(C)cccc3C)c2O1` (racemic) [Example 278, (±)-N-{[5-chloro-7-(2,6-dimethylphenyl)-2,3-dihydro-1-benzofuran-2-yl]methyl}propan-1-amine], the Emax amounted to 60% and the EC50 was 0.726 µM.
Taken in the same sequence, the figures for `CNCC1Cc2cc(Cl)cc(-c3ccccc3F)c2O1` (racemic) [Example 462, (±)-[(5-chloro-7-(2-fluorophenyl)-2,3-dihydro-1-benzofuran-2-yl]methyl}methylamine] were 80% and 0.079 µM.
Taken in the same sequence, the figures for `CNCC1Cc2cccc(-c3cccc(F)c3F)c2O1` (racemic) [Example 437, (±)-[(N-methyl-1-[7-(2,3-difluorophenyl)-2,3-dihydro-1-benzofuran-2-yl]methanamine] were 80% and 0.03 µM.
Taken in the same sequence, the figures for `CNCC1Cc2cccc(-c3cc(Cl)ccc3OC)c2O1` (racemic) [Example 430, (±)-[(N-methyl-1-[7-(5-chloro-2-methoxyphenyl)-2,3-dihydro-1-benzofuran-2-yl]methanamine] were 80% and 0.448 µM.
Take `CNCC1Cc2cccc(-c3ccc(OC)cc3OC)c2O1` (racemic) [Example 426, (±)-[(N-methyl-1-[7-(2,4-dimethoxyphenyl)-2,3-dihydro-1-benzofuran-2-yl]methanamine]: the Emax was 100% and the concentration giving a half-maximal response (EC50) was 0.017 µM.
Taken in the same sequence, the figures for `CNCC1Cc2cc(Cl)cc(-c3ccc(OC)cc3OC)c2O1` (racemic) [Example 469, (±)-{[5-chloro-7-(2,4-dimethoxyphenyl)-2,3-dihydro-1-benzofuran-2-yl]methyl}methylamine] were 80% and 0.021 µM.
Consider `Fc1cc2c(c(-c3c(Cl)cccc3Cl)c1)OC(CNCC1CC1)C2` (racemic) [Example 232, (±)-1-cyclopropyl-N-{[7-(2,6-dichlorophenyl)-5-fluoro-2,3-dihydro-1-benzofuran-2-yl]methyl}methanamine], for which the maximal effect (Emax) was found to be 50% and the half-maximal effective concentration (EC50) was 0.114 µM.
Taken in the same sequence, the figures for `Cc1cccc(C)c1-c1cc(Cl)cc2c1OC(CNC1CCC1)C2` (racemic) [Example 269, (±)-N-{[5-chloro-7-(2,6-dimethylphenyl)-2,3-dihydro-1-benzofuran-2-yl]methyl}cyclobutanamine] were 20% and 5.12 µM.

The record behind these values is patent US7435837B2, “Dihydrobenzofuranyl alkanamine derivatives and methods for using same” (Wyeth, priority 2003, dated 2008).
